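1) Cells in 96-well plates. 2) Compound, 48 h, 5 concentrations. 3) Linear interpolation between surrounding doses. 4) Unreached endpoint = highest concentration. At the TGI there is no net growth.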
What was measured:
Experiment in all cases: growth of human tumour cells (NCI), 48 h
NCI-H23 lung = system: NCI-H23 lung
LOX IMVI melanoma = system: LOX IMVI melanoma
SK-MEL-28 melanoma = system: SK-MEL-28 melanoma
UACC-257 melanoma = system: UACC-257 melanoma
SNB-19 CNS = system: SNB-19 CNS
HL-60(TB) leukemia = system: HL-60(TB) leukemia
SF-268 CNS = system: SF-268 CNS
HS 578T breast = system: HS 578T breast
MOLT-4 leukemia = system: MOLT-4 leukemia
RPMI-8226 leukemia = system: RPMI-8226 leukemia
DU-145 prostate = system: DU-145 prostate
MDA-MB-231 breast = system: MDA-MB-231 breast
HT29 colon = system: HT29 colon
HOP-62 NSCLC = system: HOP-62 NSCLC
MDA-N = system: MDA-N
OVCAR-8 ovarian = system: OVCAR-8 ovarian
786-0 renal = system: 786-0 renal
OVCAR-4 ovarian = system: OVCAR-4 ovarian
U251 CNS = system: U251 CNS
SK-OV-3 ovarian = system: SK-OV-3 ovarian
OVCAR-3 ovarian = system: OVCAR-3 ovarian
NCI-H460 lung = system: NCI-H460 lung
MALME-3M melanoma = system: MALME-3M melanoma
EKVX NSCLC = system: EKVX NSCLC
BT-549 breast = system: BT-549 breast
HOP-92 NSCLC = system: HOP-92 NSCLC
SK-MEL-5 melanoma = system: SK-MEL-5 melanoma
KM12 colon = system: KM12 colon
COLO 205 colon = system: COLO 205 colon
HCC-2998 colon = system: HCC-2998 colon
K-562 leukemia = system: K-562 leukemia
ACHN renal = system: ACHN renal
HCT-15 colon = system: HCT-15 colon
MCF7 breast = system: MCF7 breast
TK-10 renal = system: TK-10 renal
NCI-H522 lung = system: NCI-H522 lung
UACC-62 melanoma = system: UACC-62 melanoma
SN12C renal = system: SN12C renal
CCRF-CEM leukemia = system: CCRF-CEM leukemia
A549 NSCLC = system: A549 NSCLC
SF-539 CNS = system: SF-539 CNS
SK-MEL-2 melanoma = system: SK-MEL-2 melanoma
NCI/ADR-RES ovarian = system: NCI/ADR-RES ovarian
HCT-116 colon = system: HCT-116 colon
OVCAR-5 ovarian = system: OVCAR-5 ovarian
PC-3 prostate = system: PC-3 prostate
SF-295 CNS = system: SF-295 CNS
RXF 393 renal = system: RXF 393 renal
MDA-MB-435 = system: MDA-MB-435
SW-620 colon = system: SW-620 colon
IGROV1 ovarian = system: IGROV1 ovarian
CAKI-1 renal = system: CAKI-1 renal
A498 renal = system: A498 renal
T-47D breast = system: T-47D breast
M14 melanoma = system: M14 melanoma
UO-31 renal = system: UO-31 renal
SNB-75 CNS = system: SNB-75 CNS
NCI-H226 lung = system: NCI-H226 lung
SR leukemia = system: SR leukemia

Work on `CSc1cc(-c2cccs2)sc1-c1cc(SC)c(-c2sc(-c3sc(-c4cccs4)cc3SC)cc2SC)s1` yielded a TGI (NCI-H23 lung) of over 100 µM, a TGI (LOX IMVI melanoma) of over 100 µM and a TGI (SK-MEL-28 melanoma) of over 100 µM. It also gave a TGI (UACC-257 melanoma) of over 100 µM, a TGI (SNB-19 CNS) of over 100 µM and a TGI (HL-60(TB) leukemia) of over 100 µM. For the same molecule, the TGI (SF-268 CNS) was over 100 µM, the TGI (HS 578T breast) was over 100 µM and the TGI (MOLT-4 leukemia) was over 100 µM. It also gave a TGI (RPMI-8226 leukemia) of over 100 µM, a TGI (DU-145 prostate) of over 100 µM and a TGI (MDA-MB-231 breast) of over 100 µM. The TGI (HT29 colon) was over 100 µM, the TGI (HOP-62 NSCLC) was over 100 µM and the TGI (MDA-N) was over 100 µM. For the same molecule, the TGI (OVCAR-8 ovarian) was over 100 µM, the TGI (786-0 renal) was over 100 µM and the TGI (OVCAR-4 ovarian) was over 100 µM. It also gave a TGI (U251 CNS) of over 100 µM, a TGI (SK-OV-3 ovarian) of over 100 µM and a TGI (OVCAR-3 ovarian) of over 100 µM. The TGI (NCI-H460 lung) was over 100 µM, the TGI (MALME-3M melanoma) was over 100 µM and the TGI (EKVX NSCLC) was over 100 µM. It also gave a TGI (BT-549 breast) of over 100 µM, a TGI (HOP-92 NSCLC) of over 100 µM and a TGI (SK-MEL-5 melanoma) of over 100 µM. For the same molecule, the TGI (KM12 colon) was over 100 µM, the TGI (COLO 205 colon) was over 100 µM and the TGI (HCC-2998 colon) was over 100 µM. It also gave a TGI (K-562 leukemia) of over 100 µM, a TGI (ACHN renal) of over 100 µM and a TGI (HCT-15 colon) of over 100 µM. It also gave a TGI (MCF7 breast) of over 100 µM, a TGI (TK-10 renal) of over 100 µM and a TGI (NCI-H522 lung) of over 100 µM. For the same molecule, the TGI (UACC-62 melanoma) was over 100 µM, the TGI (SN12C renal) was over 100 µM and the TGI (CCRF-CEM leukemia) was over 100 µM. The TGI (A549 NSCLC) was over 100 µM, the TGI (SF-539 CNS) was over 100 µM and the TGI (SK-MEL-2 melanoma) was over 100 µM. It also gave a TGI (NCI/ADR-RES ovarian) of over 100 µM, a TGI (HCT-116 colon) of over 100 µM and a TGI (OVCAR-5 ovarian) of over 100 µM. The TGI (PC-3 prostate) was over 100 µM, the TGI (SF-295 CNS) was over 100 µM and the TGI (RXF 393 renal) was over 100 µM. It also gave a TGI (MDA-MB-435) of over 100 µM, a TGI (SW-620 colon) of over 100 µM and a TGI (IGROV1 ovarian) of over 100 µM. For the same molecule, the TGI (CAKI-1 renal) was over 100 µM, the TGI (A498 renal) was over 100 µM and the TGI (T-47D breast) was over 100 µM. The TGI (M14 melanoma) was over 100 µM.

Molecule `COc1ccc(-c2nc(SCC(=O)NNC(=S)Nc3ccccc3)[nH]c2-c2ccc(OC)cc2)cc1` has a TGI (NCI-H23 lung) of 39.3 µM, a TGI (LOX IMVI melanoma) of 37.9 µM and a TGI (SK-MEL-28 melanoma) of 66.8 µM. The TGI (UACC-257 melanoma) was 44.1 µM, the TGI (SNB-19 CNS) was 43.2 µM and the TGI (HL-60(TB) leukemia) was 29.9 µM. The TGI (SF-268 CNS) was 59.8 µM, the TGI (MOLT-4 leukemia) was 25.3 µM and the TGI (DU-145 prostate) was over 100 µM. The TGI (MDA-MB-231 breast) was 95.4 µM, the TGI (HT29 colon) was over 100 µM and the TGI (HOP-62 NSCLC) was 46.1 µM. For the same molecule, the TGI (MDA-N) was 50.3 µM, the TGI (OVCAR-8 ovarian) was over 100 µM and the TGI (786-0 renal) was 60.7 µM. It also gave a TGI (OVCAR-4 ovarian) of over 100 µM, a TGI (U251 CNS) of 32 µM and a TGI (SK-OV-3 ovarian) of over 100 µM. For the same molecule, the TGI (OVCAR-3 ovarian) was 34.5 µM, the TGI (NCI-H460 lung) was 32.2 µM and the TGI (MALME-3M melanoma) was over 100 µM. For the same molecule, the TGI (EKVX NSCLC) was 75.9 µM, the TGI (BT-549 breast) was 57 µM and the TGI (HOP-92 NSCLC) was 44.9 µM. It also gave a TGI (SK-MEL-5 melanoma) of 28.4 µM, a TGI (KM12 colon) of 85.9 µM and a TGI (COLO 205 colon) of 30.4 µM. For the same molecule, the TGI (HCC-2998 colon) was 29.3 µM, the TGI (K-562 leukemia) was over 100 µM and the TGI (ACHN renal) was 64.2 µM. For the same molecule, the TGI (HCT-15 colon) was 52 µM, the TGI (MCF7 breast) was 47.5 µM and the TGI (TK-10 renal) was over 100 µM. For the same molecule, the TGI (UO-31 renal) was over 100 µM, the TGI (NCI-H522 lung) was 42.4 µM and the TGI (UACC-62 melanoma) was 30.6 µM. The TGI (SN12C renal) was 50.8 µM, the TGI (CCRF-CEM leukemia) was over 100 µM and the TGI (A549 NSCLC) was over 100 µM. It also gave a TGI (SF-539 CNS) of 30.9 µM, a TGI (SK-MEL-2 melanoma) of 34.7 µM and a TGI (NCI/ADR-RES ovarian) of over 100 µM. The TGI (HCT-116 colon) was 78 µM, the TGI (SNB-75 CNS) was over 100 µM and the TGI (OVCAR-5 ovarian) was 49 µM. For the same molecule, the TGI (PC-3 prostate) was 73.7 µM, the TGI (SF-295 CNS) was 39.8 µM and the TGI (RXF 393 renal) was 43.9 µM. It also gave a TGI (MDA-MB-435) of 46.7 µM, a TGI (SW-620 colon) of 91.2 µM and a TGI (IGROV1 ovarian) of over 100 µM. The TGI (CAKI-1 renal) was over 100 µM, the TGI (A498 renal) was 47.9 µM and the TGI (T-47D breast) was 85 µM. The TGI (M14 melanoma) was 34.6 µM.

Molecule `COC1=CC(=O)c2c(c(-c3nc(C)cs3)cn2C)C1=O` has a TGI (NCI-H23 lung) of 6.92 µM, a TGI (LOX IMVI melanoma) of 22.8 µM and a TGI (SK-MEL-28 melanoma) of 16.1 µM. It also gave a TGI (UACC-257 melanoma) of 4.44 µM, a TGI (SNB-19 CNS) of over 100 µM and a TGI (HL-60(TB) leukemia) of 9.44 µM. For the same molecule, the TGI (SF-268 CNS) was 39.6 µM, the TGI (HS 578T breast) was 8.48 µM and the TGI (MOLT-4 leukemia) was over 80.9 µM. The TGI (RPMI-8226 leukemia) was over 22.1 µM, the TGI (DU-145 prostate) was 18.3 µM and the TGI (MDA-MB-231 breast) was 72.6 µM. The TGI (HT29 colon) was 21 µM, the TGI (HOP-62 NSCLC) was 25.3 µM and the TGI (MDA-N) was 2.7 µM. For the same molecule, the TGI (OVCAR-8 ovarian) was over 49.6 µM, the TGI (786-0 renal) was over 100 µM and the TGI (OVCAR-4 ovarian) was 68.7 µM. For the same molecule, the TGI (U251 CNS) was over 100 µM, the TGI (SK-OV-3 ovarian) was over 100 µM and the TGI (OVCAR-3 ovarian) was 6.09 µM. It also gave a TGI (NCI-H460 lung) of 3.82 µM, a TGI (EKVX NSCLC) of 33.6 µM and a TGI (BT-549 breast) of over 57.4 µM. It also gave a TGI (HOP-92 NSCLC) of 43.2 µM, a TGI (SK-MEL-5 melanoma) of 2.88 µM and a TGI (KM12 colon) of 26.7 µM. The TGI (COLO 205 colon) was 37.6 µM, the TGI (HCC-2998 colon) was 18 µM and the TGI (K-562 leukemia) was 20.6 µM. For the same molecule, the TGI (ACHN renal) was over 100 µM, the TGI (HCT-15 colon) was 14.7 µM and the TGI (MCF7 breast) was 10.9 µM. For the same molecule, the TGI (TK-10 renal) was over 100 µM, the TGI (UO-31 renal) was over 91.2 µM and the TGI (NCI-H522 lung) was 7.26 µM. It also gave a TGI (UACC-62 melanoma) of 7.74 µM, a TGI (SN12C renal) of 27 µM and a TGI (CCRF-CEM leukemia) of 35.1 µM. It also gave a TGI (A549 NSCLC) of 12 µM, a TGI (SF-539 CNS) of 9.94 µM and a TGI (SK-MEL-2 melanoma) of 10.8 µM. It also gave a TGI (NCI/ADR-RES ovarian) of 31 µM, a TGI (HCT-116 colon) of 30.8 µM and a TGI (NCI-H226 lung) of 77.2 µM. It also gave a TGI (SNB-75 CNS) of 5.42 µM, a TGI (OVCAR-5 ovarian) of over 43.9 µM and a TGI (PC-3 prostate) of over 55.4 µM. It also gave a TGI (SR leukemia) of over 50.8 µM, a TGI (SF-295 CNS) of 9.72 µM and a TGI (RXF 393 renal) of 77.8 µM. The TGI (MDA-MB-435) was 1.4 µM, the TGI (SW-620 colon) was 94.6 µM and the TGI (IGROV1 ovarian) was 20.5 µM. It also gave a TGI (CAKI-1 renal) of 21.3 µM, a TGI (A498 renal) of 28.7 µM and a TGI (T-47D breast) of 53.4 µM. For the same molecule, the TGI (M14 melanoma) was 7.39 µM.

From PubChem BioAssay (NCI)
